One assay relates to GDF8. Briefly: AlphaScreen SureFire p-SMAD3 (Ser423/425) assay, GDF8-stimulated cells. The assay is classed as cell-based. To be noted: Mus musculus. An outline of the steps:
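Lysate (5 μL) went into 384-well shallow plates with 5 μL of Reaction Buffer, Activation Buffer and AlphaScreen Acceptor bead mix. Plates were sealed, kept dark and shaken for 2 hours at room temperature. Donor beads in dilution buffer (2 μL) were added for another 1½ hours, and p-SMAD3 signal was read on a Synergy-4 or Enspire reader.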
In general terms: In Alpha technology, singlet oxygen from a donor bead excites a nearby acceptor bead.

In a further assay the test system is TGF-β. Briefly: AlphaScreen SureFire p-SMAD3 (Ser423/425) assay, TGF-β-stimulated cells. The assay is classed as cell-based. To be noted: Mus musculus. A digest of the protocol:
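The p-SMAD-3 (Ser423/425) SureFire assay measured phosphorylation of endogenous SMAD-3 in cell lysates. Cells were plated overnight in collagen-coated plates, exposed to three-fold serially diluted compounds for about 10 minutes, then stimulated with TGFβ. Lysates (5 μL) received acceptor bead mix for 2 hours, then donor beads for 1½ hours before AlphaScreen reading.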

Where [1] appears, read: MPC-11, p-SMAD3 (Ser423/425) AlphaScreen in cell lysate, MPC11, GDF8 stimulation, read-out: GDF8: inhibition of GDF8 signaling, GDF pSMAD (MPC11).
[2] abbreviates: p-SMAD3 (Ser423/425) AlphaScreen in cell lysate, MPC-11, TGF-β stimulation, read-out: TGF-β: inhibition of TGF-β signaling, TGF-β pSMAD (MPC-11).
Where [3] appears, read: MPC-11, read-out: GDF8: inhibition of GDF8 signaling, GDF pSMAD (MPC11), p-SMAD3 (Ser423/425) AlphaScreen in cell lysate, GDF8 stimulation.
Where [4] appears, read: MPC-11, read-out: TGF-β: inhibition of TGF-β signaling, TGF-β pSMAD (MPC-11), p-SMAD3 (Ser423/425) AlphaScreen in cell lysate, TGF-β stimulation.

Results on 29 compounds are retold here after US10696693B2, “Fused imidazole derivatives as TGF-beta inhibitors” (Rigel Pharmaceuticals, Inc., priority 2014, dated 2020).

Like-named read-outs stand apart in the source and are kept apart here.

`FC(F)(F)c1cccc(-c2nc3n(c2-c2ccc4nccn4c2)CCC3)c1` [Compound 4]: the IC50 in the assay with GDF8 (setting [1]) and with TGF-β (setting [2]) was 100 to 1000 nM in each case.
For the compound `c1ccc(-c2nc3n(c2-c2ccc4nccn4c2)CCC3)nc1` [Compound 370, 6-(2-(pyridin-2-yl)-6,7-dihydro-5H-pyrrolo[1,2-a]imidazol-3-yl)imidazo[1,2-a]pyridine], the IC50 in the assay on GDF8 (setting [1]) and in the assay on TGF-β (setting [2]) was less than 50 nM throughout.
In the case of `CN(C)CCOc1cnc2ccc(-c3c(-c4cc(F)c(F)cc4F)nc4n3CCN4)cc2n1` [Compound 120, N,N-dimethyl-2-((7-(6-(2,4,5-trifluorophenyl)-2,3-dihydro-1H-imidazo[1,2-a]imidazol-5-yl)quinoxalin-2-yl)oxy)ethan-1-amine], the IC50 in the assay on GDF8 (setting [1]) and with TGF-β (setting [2]) was less than 50 nM throughout.
In the case of `Fc1cc(F)c(-c2nc3n(c2-c2ccc4ncsc4c2)CCN3)cc1F` [Compound 103, 6-(6-(2,4,5-trifluorophenyl)-2,3-dihydro-1H-imidazo[1,2-a]imidazol-5-yl)benzo[d]thiazole], the IC50 with GDF8 (setting [1]) and in the assay on TGF-β (setting [2]) was less than 50 nM throughout.
As to `Cc1cc(-c2nc3n(c2-c2ccc4nccnc4c2)CCC3)c(C)cc1F` [Compound 310, 6-(2-(4-fluoro-2,5-dimethylphenyl)-6,7-dihydro-5H-pyrrolo[1,2-a]imidazol-3-yl)quinoxaline], the figures for the IC50 in the assay with GDF8 (setting [3]) and in the assay on TGF-β (setting [4]) were 100 to 1000 nM and more than 1000 nM, respectively.
Take `Cc1c(-c2nc3n(c2-c2ccc4ncnn4c2)CCC3)ccc(F)c1F` [Compound 44, 6-(2-(3,4-difluoro-2-methylphenyl)-6,7-dihydro-5H-pyrrolo[1,2-a]imidazol-3-yl)-[1,2,4]triazolo[1,5-a]pyridine]: the IC50 was 100 to 1000 nM with GDF8 (setting [1]) and more than 1000 nM with TGF-β (setting [2]).
As for `Cc1ccc(-c2ccc3nccnc3c2)cc1-c1nc2n(c1-c1ccc3nccnc3c1)CCC2` [Compound 341, 6-(4-methyl-3-(3-(quinoxalin-6-yl)-6,7-dihydro-5H-pyrrolo[1,2-a]imidazol-2-yl)phenyl)quinoxaline], the IC50 in the assay with GDF8 (setting [3]) and in the assay with TGF-β (setting [4]) was more than 1000 nM throughout.
`Cc1c(F)ccc(-c2nc3n(c2-c2ccc4ncccc4c2)CCC3)c1Cl` [Compound 315, 6-(2-(2-chloro-4-fluoro-3-methylphenyl)-6,7-dihydro-5H-pyrrolo[1,2-a]imidazol-3-yl)quinoline]: the IC50 with GDF8 (setting [3]) and in the assay with TGF-β (setting [4]) was more than 1000 nM throughout.
For the compound `Nc1ncnc2ccc(-c3c(-c4ccc(F)c(Cl)c4)nc4n3CCC4)cc12` [Compound 347, 6-(2-(3-chloro-4-fluorophenyl)-6,7-dihydro-5H-pyrrolo[1,2-a]imidazol-3-yl)quinazolin-4-amine], the IC50 in the assay with GDF8 (setting [1]) and in the assay with TGF-β (setting [2]) was 50 to 100 nM throughout.
In the case of `O=S(=O)(Nc1cccc(-c2nc3n(c2-c2ccc4nccn4c2)CCC3)c1)c1ccccc1F` [Compound 70, 2-fluoro-N-(3-(3-(imidazo[1,2-a]pyridin-6-yl)-6,7-dihydro-5H-pyrrolo[1,2-a]imidazol-2-yl)phenyl)benzenesulfonamide], the IC50 in the assay on GDF8 (setting [1]) and with TGF-β (setting [2]) was more than 1000 nM throughout.
As for `Fc1cc(Cl)c(-c2nc3n(c2-c2ccc4ncsc4c2)CCC3)cc1F` [Compound 289, 6-(2-(2-chloro-4,5-difluorophenyl)-6,7-dihydro-5H-pyrrolo[1,2-a]imidazol-3-yl)benzo[d]thiazole], the IC50 is less than 50 nM with GDF8 (setting [1]) and 100 to 1000 nM in the assay on TGF-β (setting [2]).
For the compound `Cc1c(F)ccc(-c2nc3n(c2-c2ccc4ncsc4c2)CCC3)c1Cl` [Compound 313, 6-(2-(2-chloro-4-fluoro-3-methylphenyl)-6,7-dihydro-5H-pyrrolo[1,2-a]imidazol-3-yl)benzo[d]thiazole], the IC50 in the assay with GDF8 (setting [3]) and with TGF-β (setting [4]) was 100 to 1000 nM throughout.
With `COc1c(C)cc(-c2nc3n(c2-c2ccc4nccn4c2)CCC3)cc1C` [Compound 31, 6-(2-(4-methoxy-3,5-dimethylphenyl)-6,7-dihydro-5H-pyrrolo[1,2-c]imidazol-3-yl)imidazo[1,2-c]pyridine], the IC50 in the assay with GDF8 (setting [1]) and in the assay on TGF-β (setting [2]) was more than 1000 nM in each case.
As for `Fc1ccc(F)c(-c2nc3n(c2-c2ccc4ncsc4c2)CCC3)c1F` [Compound 222, 6-(2-(2,3,6-trifluorophenyl)-6,7-dihydro-5H-pyrrolo[1,2-a]imidazol-3-yl)benzo[d]thiazole], the IC50 in the assay with GDF8 (setting [1]) and in the assay with TGF-β (setting [2]) was 100 to 1000 nM throughout.
Turning to `Cc1cc(-c2nc3n(c2-c2ccc4nccnc4c2)CCC3)ccc1F` [Compound 179, 6-(2-(4-fluoro-3-methylphenyl)-6,7-dihydro-5H-pyrrolo[1,2-a]imidazol-3-yl)quinoxaline], the IC50 in the assay on GDF8 (setting [1]) was in the range of 50 to 100 nM; with TGF-β (setting [2]) it was 100 to 1000 nM.
For the compound `Cc1ccc(-c2ccc3ncnn3c2)cc1-c1nc2n(c1-c1ccc3ncnn3c1)CCC2` [Compound 91, 6-(2-(5-([1,2,4]triazolo[1,5-a]pyridin-6-yl)-2-methylphenyl)-6,7-dihydro-5H-pyrrolo[1,2-a]imidazol-3-yl)-[1,2,4]triazolo[1,5-a]pyridine], the IC50 in the assay with GDF8 (setting [1]) and with TGF-β (setting [2]) was more than 1000 nM throughout.
As to `Fc1cccc(F)c1-c1nc2n(c1-c1ccc3nccnc3c1)CCC2` [Compound 215, 6-(2-(2,6-difluorophenyl)-6,7-dihydro-5H-pyrrolo[1,2-a]imidazol-3-yl)quinoxaline], the IC50 with GDF8 (setting [1]) and in the assay on TGF-β (setting [2]) was more than 1000 nM each time.
For `CC(=O)N1CCn2c1nc(-c1cc(F)cc(F)c1F)c2-c1ccc2ncnn2c1` [Compound 109, 1-(5-([1,2,4]triazolo[1,5-a]pyridin-6-yl)-6-(2,3,5-trifluorophenyl)-2,3-dihydro-1H-imidazo[1,2-a]imidazol-1-yl)ethan-1-one], the IC50 with GDF8 (setting [1]) and in the assay on TGF-β (setting [2]) was less than 50 nM each time.
On to `Fc1cc(F)cc(-c2nc3n(c2-c2ccc4[nH]ncc4c2)CCC3)c1` [Compound 230, 5-(2-(3,5-difluorophenyl)-6,7-dihydro-5H-pyrrolo[1,2-a]imidazol-3-yl)-1H-indazole], for which the IC50 in the assay with GDF8 (setting [3]) was 100 to 1000 nM; with TGF-β (setting [4]), more than 1000 nM.
Take `c1ccc(-c2nc3n(c2-c2ccc4ncccc4c2)CCC3)nc1` [Compound 369, 6-(2-(pyridin-2-yl)-6,7-dihydro-5H-pyrrolo[1,2-a]imidazol-3-yl)quinoline]: the figures for the IC50 with GDF8 (setting [1]) and in the assay with TGF-β (setting [2]) were less than 50 nM and 50 to 100 nM, respectively.
The corresponding values for `Fc1ccc(F)c(-c2nc3n(c2-c2ccc4[nH]ncc4c2)CCC3)c1F` [Compound 221, 5-(2-(2,3,6-trifluorophenyl)-6,7-dihydro-5H-pyrrolo[1,2-a]imidazol-3-yl)-1H-indazole] are 100 to 1000 nM and more than 1000 nM.
Consider `Cc1cc(F)c(Cl)cc1-c1nc2n(c1-c1ccc3nccnc3c1)CCC2` [Compound 298, 6-(2-(5-chloro-4-fluoro-2-methylphenyl)-6,7-dihydro-5H-pyrrolo[1,2-a]imidazol-3-yl)quinoxaline], for which the IC50 in the assay on GDF8 (setting [3]) was 100 to 1000 nM; in the assay on TGF-β (setting [4]), more than 1000 nM.
`Fc1cccc(-c2nc3n(c2-c2ccc4nccnc4c2)CCC3)c1` [Compound 196, 6-(2-(3-fluorophenyl)-6,7-dihydro-5H-pyrrolo[1,2-a]imidazol-3-yl)quinoxaline]: the IC50 is 100 to 1000 nM in the assay with GDF8 (setting [3]) and more than 1000 nM with TGF-β (setting [4]).
For `Fc1cc(F)cc(-c2nc3n(c2-c2ccc4nccnc4c2)CCC3)c1` [Compound 233, 6-(2-(3,5-difluorophenyl)-6,7-dihydro-5H-pyrrolo[1,2-a]imidazol-3-yl)quinoxaline], in that order: more than 1000 nM and more than 1000 nM.
On to `O=C(OCc1ccccc1)N1CCC2Cn3c(nc(-c4ccc(F)cc4)c3-c3ccc4ncnn4c3)C2C1` (stereo not shown) [Compound 88, benzyl 3-([1,2,4]triazolo[1,5-a]pyridin-6-yl)-2-(4-fluorophenyl)-5,5a,6,7,9,9a-hexahydro-8H-imidazo[1′,2′:1,2]pyrrolo[3,4-c]pyridine-8-carboxylate], for which the IC50 in the assay on GDF8 (setting [1]) and with TGF-β (setting [2]) was more than 1000 nM throughout.
For `Cc1ccc(F)cc1-c1nc2n(c1-c1ccc3nccn3c1)CCC2` [Compound 59, 6-(2-(5-fluoro-2-methylphenyl)-6,7-dihydro-5H-pyrrolo[1,2-a]imidazol-3-yl)imidazo[1,2-a]pyridine], the IC50 with GDF8 (setting [1]) and in the assay on TGF-β (setting [2]) was more than 1000 nM throughout.
On to `Fc1ccc(-c2nc3occn3c2-c2ccc3ncsc3c2)c(F)c1F` [Compound 161, 5-(benzo[d]thiazol-6-yl)-6-(2,3,4-trifluorophenyl)imidazo[2,1-b]oxazole], for which the IC50 lay within 50 to 100 nM in the assay with GDF8 (setting [1]) and 100 to 1000 nM with TGF-β (setting [2]).
On to `NC(=O)c1cnc2ccc(-c3c(-c4cc(F)c(F)c(F)c4)nc4n3CCC4)cn12` [Compound 53, 6-(2-(3,4,5-trifluorophenyl)-6,7-dihydro-5H-pyrrolo[1,2-a]imidazol-3-yl)imidazo[1,2-a]pyridine-3-carboxamide], for which the IC50 in the assay with GDF8 (setting [3]) and with TGF-β (setting [4]) was 50 to 100 nM throughout.
On to `Clc1ccc(Cl)c(-c2nc3n(c2-c2ccc4ncsc4c2)CCC3)c1` [Compound 349, 6-(2-(2,5-dichlorophenyl)-6,7-dihydro-5H-pyrrolo[1,2-a]imidazol-3-yl)benzo[d]thiazole], for which the values for the IC50 with GDF8 (setting [3]) and in the assay with TGF-β (setting [4]) were less than 50 nM and 50 to 100 nM, respectively.
